ChEMBL document CHEMBL2401685 (Bioorg Med Chem Lett, 2013)
The source made the active and inactive calls. No cut-off for these calls is given here.

Tests used:
[1] = target: T1, 11-beta-hydroxysteroid dehydrogenase type 2 (Rattus norvegicus) (UniProt P50233); assay: Inhibition of 11beta-HSD2 in rat kidney microsomes using [3H]-CORT as substrate assessed as formation of 11-DHC at 100 uM after 30 mins by radiometric analysis relative to control; settings: Microsome
T1 sequence (whole entry): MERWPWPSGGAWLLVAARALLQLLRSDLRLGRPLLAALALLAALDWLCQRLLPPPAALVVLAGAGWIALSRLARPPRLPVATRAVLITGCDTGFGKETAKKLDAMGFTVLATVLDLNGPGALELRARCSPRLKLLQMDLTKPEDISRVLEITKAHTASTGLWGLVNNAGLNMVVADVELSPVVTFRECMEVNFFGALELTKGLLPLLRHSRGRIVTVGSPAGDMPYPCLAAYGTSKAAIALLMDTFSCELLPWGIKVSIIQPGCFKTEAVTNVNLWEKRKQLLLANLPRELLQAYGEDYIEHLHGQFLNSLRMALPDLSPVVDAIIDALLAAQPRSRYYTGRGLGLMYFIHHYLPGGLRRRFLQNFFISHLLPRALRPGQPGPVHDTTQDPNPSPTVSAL

[2] = target: T2, 11-beta-hydroxysteroid dehydrogenase type 2 (Homo sapiens) (UniProt P80365); assay: Inhibition of 11beta-HSD2 in human kidney microsomes using [3H]-cortisol as substrate assessed as formation of cortisone at 100 uM after 30 mins by radiometric analysis relative to control; settings: Microsome
T2 sequence (whole entry): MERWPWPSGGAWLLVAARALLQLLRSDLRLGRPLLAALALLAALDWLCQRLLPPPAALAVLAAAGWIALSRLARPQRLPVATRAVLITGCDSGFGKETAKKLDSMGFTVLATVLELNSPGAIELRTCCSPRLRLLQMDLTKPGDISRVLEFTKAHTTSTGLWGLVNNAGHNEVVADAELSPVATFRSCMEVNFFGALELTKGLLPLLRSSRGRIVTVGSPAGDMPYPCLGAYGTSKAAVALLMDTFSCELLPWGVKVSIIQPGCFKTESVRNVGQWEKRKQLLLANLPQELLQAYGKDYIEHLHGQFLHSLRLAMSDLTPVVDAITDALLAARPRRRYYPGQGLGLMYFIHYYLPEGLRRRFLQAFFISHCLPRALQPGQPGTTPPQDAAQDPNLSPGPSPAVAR

[3] = target: 11-beta-hydroxysteroid dehydrogenase 1 (Rattus norvegicus) (UniProt P16232); assay: Inhibition of 11beta-HSD1 in Sprague-Dawley rat leydig cells […] relative to control; settings: 100 uM
[4] = target: T3, 11-beta-hydroxysteroid dehydrogenase 1 (Homo sapiens, UniProt P28845); assay: Inhibition of 11beta-HSD1 in human liver microsomes using [3H]-cortisone as substrate assessed as formation of cortisol at 100 uM after 60 to 90 mins by radiometric analysis relative to control; settings: Microsome
Target sequence in this assay (P28845 whole entry, looked up): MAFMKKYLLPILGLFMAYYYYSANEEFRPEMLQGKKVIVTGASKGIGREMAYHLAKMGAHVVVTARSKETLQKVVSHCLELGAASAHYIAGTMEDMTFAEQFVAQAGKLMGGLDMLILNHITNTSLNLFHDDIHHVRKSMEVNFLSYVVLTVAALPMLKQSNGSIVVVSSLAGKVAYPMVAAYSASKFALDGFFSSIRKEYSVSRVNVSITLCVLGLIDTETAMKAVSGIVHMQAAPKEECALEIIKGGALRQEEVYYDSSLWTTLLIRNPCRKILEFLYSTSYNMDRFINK

[5] = target: T3, 11-beta-hydroxysteroid dehydrogenase 1; assay: Inhibition of human 11beta-HSD1 transfected in CHOP cells at 100 uM relative to control; assay type: cell-based
Target sequence in this assay (P28845 whole entry, looked up): as above

[6] = target: 11-beta-hydroxysteroid dehydrogenase 1 (Rattus norvegicus) (UniProt P16232); assay: Inhibition of 11beta-HSD1 in rat testis microsomes using [3H]-11-DHC as substrate assessed as formation of CORT at 100 uM after 60 to 90 mins by radiometric analysis relative to control; settings: Microsome
J774.A1 = assay: Antiinflammatory activity in mouse J774A1 cells assessed as LPS-induced TNFalpha production at 10 uM incubated 2 hrs prior to LPS challenge measured after 24 hrs by ELISA relative to vehicle-treated control; assay type: functional
[7] = target: T4, 11-beta-hydroxysteroid dehydrogenase 1 (Rattus norvegicus, UniProt P16232); assay: Inhibition of 11beta-HSD1 in Sprague-Dawley rat leydig cells […]
[8] = target: T3, 11-beta-hydroxysteroid dehydrogenase 1; assay: Inhibition of human 11beta-HSD1 transfected in CHOP cells; assay type: cell-based
Target sequence in this assay (P28845 whole entry): as the sequence (P28845 whole entry, looked up) above

[9] = target: T3, 11-beta-hydroxysteroid dehydrogenase 1; assay: Inhibition of 11beta-HSD1 in human liver microsomes using [3H]-cortisone as substrate assessed as formation of cortisol after 60 to 90 mins by radiometric analysis; design: species or system Microsome
Target sequence in this assay (P28845 whole entry): as the sequence (P28845 whole entry, looked up) above

[10] = target: T3, 11-beta-hydroxysteroid dehydrogenase 1; assay: Ratio of curcumin IC50 to compound IC50 for human 11beta-HSD1 transfected in CHOP cells; assay type: cell-based
Target sequence in this assay (P28845 whole entry, looked up): as above

[11] = target: T4, 11-beta-hydroxysteroid dehydrogenase 1; assay: Inhibition of 11beta-HSD1 in rat testis microsomes using [3H]-11-DHC as substrate assessed as formation of CORT after 60 to 90 mins by radiometric analysis; design: species or system Microsome

T4 sequence (P16232 whole entry): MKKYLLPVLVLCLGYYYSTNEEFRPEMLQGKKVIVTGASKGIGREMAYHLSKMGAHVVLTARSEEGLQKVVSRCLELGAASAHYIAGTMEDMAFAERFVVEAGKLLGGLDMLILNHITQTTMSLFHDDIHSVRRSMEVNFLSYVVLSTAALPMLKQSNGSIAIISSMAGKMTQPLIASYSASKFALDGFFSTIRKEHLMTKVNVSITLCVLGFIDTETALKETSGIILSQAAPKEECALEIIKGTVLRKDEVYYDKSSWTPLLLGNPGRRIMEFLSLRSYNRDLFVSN
Sequence of 11-beta-hydroxysteroid dehydrogenase 1 (Rattus norvegicus) (P16232 whole entry, looked up): as the sequence (P16232 whole entry) above

Compound	inhibition [1]	inhibition [2]	inhibition [3]	inhibition [4]	inhibition [5]	inhibition [6]	inhibition (J774.A1)	IC50 [7]	IC50 [8]	IC50 [9]	Ratio IC50 [10]	IC50 [11]
O=C1/C(=C/c2ccc(O)cc2)CC/C1=C\c1ccc(O)cc1	17%	0%	21%	39%	12%	32%						
O=C1/C(=C/c2cccc(C(F)(F)F)c2F)CC/C1=C\c1cccc(C(F)(F)F)c1F	5%	0%	22%	23%	24%	2%						
C=CCOc1ccc(/C=C2\CCC/C(=C\c3ccc(OCC=C)c(OC)c3)C2=O)cc1OC	8%	6%	6%	7%	16%	15%						
O=C(/C=C/c1ccc(OC2CCCCO2)cc1)/C=C/c1ccc(OC2CCCCO2)cc1 (configuration not stated)	24%	13%		36%	54%	13%	inactive	17200 nM				
CCOc1ccc(/C=C2\CCC/C(=C\c3ccc(OCC)cc3)C2=O)cc1	14%	11%	26%	17%	16%	17%						
O=C(/C=C/c1ccc(O)cc1)/C=C/c1ccc(O)cc1	7%	44%				41%		986 nM	832 nM	4.42 µM	5	
CN(C)c1ccc(/C=C/C(=O)/C=C/c2ccc(N(C)C)cc2)cc1	13%	0%	10%	24%	29%	0%	inactive					
O=C1/C(=C/c2ccc(O)cc2)CCC/C1=C\c1ccc(O)cc1	24%	0%				63%		633 nM	195 nM	1.94 µM	5	
COc1cc(/C=C2\CCC/C(=C\c3cc(OC)c(OC)c(OC)c3)C2=O)cc(OC)c1OC	23%	13%	42%	21%	14%	35%	inactive					
C=CCOc1ccc(/C=C/C(=O)/C=C/c2ccc(OCC=C)cc2)cc1	16%	2%	22%	35%	4%	0%						
C=CCOc1ccc(/C=C2\CCC/C(=C\c3ccc(OCC=C)cc3)C2=O)cc1	23%	6%	8%	18%	18%	19%						
C=CCOc1ccc(/C=C/C(=O)/C=C/c2ccc(OCC=C)c(OC)c2)cc1OC	19%	13%	18%	14%	1%	9%						
C=CCOc1ccc(/C=C2\CC/C(=C\c3ccc(OCC=C)c(OC)c3)C2=O)cc1OC	0%	10%	17%	13%	31%	14%						
COc1cc(/C=C2\CC/C(=C\c3ccc(O)c(OC)c3)C2=O)ccc1O	34%	13%	19%	49%	17%	52%						
COc1cc(/C=C2\CCC/C(=C\c3ccc(OC4CCCCO4)c(OC)c3)C2=O)ccc1OC1CCCCO1 (configuration not stated)	14%	6%	8%	37%	40%							65.4 µM
CN(C)c1ccc(/C=C2\CCC/C(=C\c3ccc(N(C)C)cc3)C2=O)cc1	20%	21%	37%	14%	26%	16%	inactive					
O=C(/C=C/c1ccc(F)cc1)/C=C/c1ccc(F)cc1	22%	26%		37%		2%	inactive	229 nM	507 nM		9	
COc1cc(/C=C/C(=O)/C=C/c2cc(OC)c(OC)c(OC)c2)cc(OC)c1OC	11%	1%	5%	16%	40%	0%	inactive					
COc1cc(/C=C2\CC/C(=C\c3ccc(OC4CCCCO4)c(OC)c3)C2=O)ccc1OC1CCCCO1 (configuration not stated)	11%	0%	18%	26%	26%	13%	inactive					
CCOc1ccc(/C=C/C(=O)/C=C/c2ccc(OCC)cc2)cc1	27%	8%		36%	9%	7%		9950 nM				
COc1cc(/C=C2\CC/C(=C\c3cc(OC)c(OC)c(OC)c3)C2=O)cc(OC)c1OC	9%	5%	18%	16%	31%	12%	inactive					
C=CCOc1ccc(/C=C2\CC/C(=C\c3ccc(OCC=C)cc3)C2=O)cc1	15%	0%	10%	28%	23%	9%						
COc1cc(/C=C/C(=O)/C=C/c2ccc(OC3CCCCO3)c(OC)c2)ccc1OC1CCCCO1 (configuration not stated)	16%	0%		28%	28%	19%		52500 nM				
O=C1/C(=C/c2ccccc2Br)CC/C1=C\c1ccccc1Br	22%	36%						1450 nM	144 nM	6.11 µM	9	2.88 µM
CN(C)c1ccc(/C=C2\CC/C(=C\c3ccc(N(C)C)cc3)C2=O)cc1	1%	0%	13%	15%	16%	0%	inactive					
O=C1/C(=C/c2cccc(Br)c2)CC/C1=C\c1cccc(Br)c1	3%	23%						1150 nM	97 nM	3.51 µM	9	0.599 µM
COc1cc(/C=C/C(=O)/C=C/c2ccc(O)c(OC)c2)ccc1O	35%	39%						292 nM	257 nM	70.9 µM	5	16.1 µM
O=C1/C(=C/c2ccc(OC3CCCCO3)cc2)CC/C1=C\c1ccc(OC2CCCCO2)cc1 (configuration not stated)	13%	0%	22%	30%	9%	11%	inactive					
O=C1/C(=C/c2ccc(OC3CCCCO3)cc2)CCC/C1=C\c1ccc(OC2CCCCO2)cc1 (configuration not stated)	48%	17%	28%	14%	28%	45%	inactive					
CN(C)CCCOc1ccc(/C=C2\CC/C(=C\c3ccc(OCCCN(C)C)cc3)C2=O)cc1	12%	24%		15%	49%	2%		4170 nM				
